# Measured values from patent US7829575B2, “Methods for treating androgen receptor related disorders” (University of Cincinnati, priority 2006, dated 2010).
# Where a SMILES comes first, the peptide text is derived from it. The star is where a group is joined. Cbz = O=C(OCc1ccccc1)*
# What was measured:
# [1] = tested on: LNCaP cells (mutant AR, H877A); assay: LNCaP cell growth, MTT staining; assay type: cell-based
# Description: (§1) Viable cells are stained with MTT (3-(4,5-dimethylthiazol-2-yl)-2,5-diphenyltetrazolium bromide). *, **, and *** designate p<0.05, <0.01, and 0.001, respectively, compared with controls.
# LNCaP cells [2] = assay: PSA secretion, ELISA of culture supernatant; assay type: cell-based; conditions: for DHT-induced PSA production / PSA production under androgen-free conditions: 20 μM, 48 hr; for PSA production under androgen-free conditions: no DHT
# Description: PSA in the culture supernatant is determined by using an enzyme-linked immunosorbent assay (ELISA) kit. PSA levels are normalized by cell density.
# LNCaP-ARR2-GFP cells = assay: AR-regulated GFP expression in LNCaP-ARR2-GFP cells; assay type: cell-based; conditions: for GFP expression (AR agonist activity): SMEM, absence of DHT, DL3 at 25 nM or 20 μM; for cell growth: LNCaP-ARR2-GFP cells
# LNCaP cells [3] = assay: PSA and AR mRNA expression, RT-PCR; assay type: cell-based; conditions: 24 hr; for expression of AR mRNA: 20 μM DL3 or Bical
# Description: In FIG. 7 LNCaP or 22Rv1 cells (A) are treated for 24 hr with DL3 and total RNA is extracted and analyzed by real-time RT-PCR. […] PSA mRNA in LNCaP cells is approximately 20 fold higher than that in 22Rv1 cells (FIG. 7A).
# LNCaP cells [4] = assay: Cell cycle distribution and apoptosis, flow cytometry (propidium staining) and western blotting; assay type: cell-based; conditions: for increase of the portion of cells in G1 phase of cell cycle: regardless of presence or absence of DHT
# Description: To further appreciate the effects of DL3 on cell growth, cell cycle distribution is determined using the flow cytometry analysis. After incubation of LNCaP cells for 24 hr in SMEM, the majority of cells are in the G1 phase of cell cycle. […] The cell cycle distribution is examined by the propidium staining method. […] Thus, DL3 induces GI arrest of prostate cancer cells in short term culture.
# LNCaP cells [5] = assay: Cellular PSA and AR protein, western blotting; assay type: cell-based
# Description: In FIG. 6, cellular PSA and AR are analyzed by western blotting androgen-starved LNCaP cells.
# LNCaP cells [6] = assay: PSA and AR mRNA expression, RT-PCR; assay type: cell-based; conditions: 6 hr
# LNCaP cells [7] = assay: AR protein stability and hsp70/hsp90 expression, western blotting; assay type: cell-based
# Description: Cell lysates are prepared and analyzed by western blotting. […] To further determine how DL3 downregulates AR, LNCaP cells are incubated for 24 hr with DL3 in the absence or presence of proteasome inhibitor MG132.
# Hsp70 and hsp90 are key molecular chaperones in cells. Along with several co-chaperones, hsp70 and hsp90 play critical roles in folding and assembling AR to a high-affinity ligand binding conformation and in regulating AR activation that occurs following hormone binding. Therefore, the possibility of whether the downregulation of AR protein by DL3 is mediated by its effects on hsp70 or hsp90 expression is investigated.
# Thus, the effects of DL3 on hsp70 expression are further investigated in several other prostate cancer cell lines, including LAPC-4 (wildtype AR), 22Rv1 (mutant AR), and AR-negative cell lines PC-3, DU-145, PWE1-NB14 (ATCC), and PWE1-NB26 (ATCC). […] In FIG. 10, LAPC-4 (in SMEM) and all other (in CMEM) cells are treated for 24 hr and analyzed by western blotting. LNCaP cells are transfected for 24 hr with hsp70 or its control vector, then treated for 24 hr.
# human PSA gene promoter = assay: PSA promoter luciferase reporter (pGL3-PSA-luc) in LNCaP cells; conditions: 1 nM DHT, 24 hr
# LNCaP-Nilut-R cells [8] = assay: Growth of Nilut-refractory LNCaP cells, MTT; assay type: cell-based; conditions: 10 μM, 4 days, MTT (FIG. 2F)
# Description: as §1
# LNCaP-Flut-R cells [9] = assay: Growth of Flut-refractory LNCaP cells, MTT; assay type: cell-based; conditions: 10 μM, 4 days, MTT (FIG. 2F)
# Description: as §1
# LNCaP-Flut-R cells [10] = assay: PSA secretion, ELISA of culture supernatant; assay type: cell-based; conditions: 1 nM DHT, 10 μM, 48 hr (FIG. 5D)
# Description: (§2) For the following discussion, see FIG. 5, where androgen-starved LNCaP, LNCaP-Flut-R, or LNCaP-Nilut-R cells are plated into 96-well plates at 2×10^4 cells/wells in SMEM and treated for 48 hr. PSA in the culture supernatant is determined by using an enzyme-linked immunosorbent assay (ELISA) kit. PSA levels are normalized by cell density. […] The DHT-induced production of PSA is reduced by approximately 50% in cells treated with 5 μM of DL3 (FIG. 5B). […] PSA production is elevated in LNCaP-Flut-R and LNCaP-Nilut-R cells compared with that in their parental cells (FIG. 5D).
# LNCaP-Nilut-R cells [11] = assay: PSA secretion, ELISA of culture supernatant; assay type: cell-based; conditions: 1 nM DHT, 10 μM, 48 hr (FIG. 5D)
# Description: as §2
smiles,measurement,setting,value
"CC(O)(CS(=O)(=O)c1ccc(F)cc1)C(=O)Nc1ccc(C#N)c(C(F)(F)F)c1 (stereo not drawn) [Bical, Bicalutamide, reference compound]",effect on DHT-stimulated growth of LNCaP cells,[1],inhibit DHT-stimulated growth of LNCaP cells in a dose-dependent manner
same,DHT-induced PSA production,LNCaP cells [2]; 1 nM DHT,reduce DHT-induced PSA production
same,PSA production under androgen-free conditions,LNCaP cells [2],stimulates PSA production
same,GFP expression (AR agonist activity),LNCaP-ARR2-GFP cells,not
same,DHT-stimulated PSA mRNA expression,"LNCaP cells [3]; 20 μM, 1 nM DHT",only partially inhibits
same,basal level of PSA mRNA,"LNCaP cells [3]; 20 μM, androgen-starved",no significant effects
same,expression of AR mRNA,LNCaP cells [3]; 1 nM DHT,partially downregulated
same,increase of the portion of cells in G1 phase of cell cycle,LNCaP cells [4]; 24 hr,15%
same,induction of apoptosis,"LNCaP cells [4]; 24 hr, DL3 at 20 μM",does not induce apoptosis
same,survivin expression and caspase 3 cleavage (western blotting),LNCaP cells [4]; data not shown,alter neither survivin expression nor caspase 3 cleavage
same,PSA protein expression under androgen-free culture conditions,"LNCaP cells [5]; 20 μM, 24 hr",enhances PSA expression
same,expression of AR protein,"LNCaP cells [5]; 20 μM, 24 hr (FIG. 6C)",moderately downregulated
same,DHT-induced PSA protein expression,"LNCaP cells [5]; SMEM, 24 hr, Flut, Nilut, Bical at 20 μM",moderately reduced
"C[C@]12CCC(=O)C[C@@H]1CC[C@@H]1[C@@H]2CC[C@]2(C)[C@@H](O)CC[C@@H]12 [DHT, dihydrotestosterone, reference compound]",AR mRNA expression,LNCaP cells [6],not significantly altered
same,expression of hsp70,"LNCaP cells [7]; SMEM, 24 hr with DHT or CHX (FIG. 9B, lane 3 or 5 vs. lane 1)",also reduced
same,PSA production,LNCaP cells [2],significantly elevated
same,enhancement of PSA promoter activity,human PSA gene promoter,approximately 5 fold
same,expression of AR mRNA,LNCaP cells [3]; 1 nM DHT,partially downregulated
"CC(C)C(=O)Nc1ccc([N+](=O)[O-])c(C(F)(F)F)c1 [Flut, Flutamide]",increase of the portion of cells in G1 phase of cell cycle,LNCaP cells [4]; 24 hr,15%
O=c1c(-c2ccc(O)cc2)coc2cc(O)cc(O)c12 [Genistein],cell growth,LNCaP-ARR2-GFP cells,significantly inhibited cell growth
same,GFP expression (AR agonist activity),LNCaP-ARR2-GFP cells,enhanced GFP expression
"CC(C)C[C@@H](C=O)NC(=O)[C@H](CC(C)C)NC(=O)[C@H](CC(C)C)NC(=O)OCc1ccccc1 [MG132, reference compound] (Cbz-Leu-Leu-Leu-aldehyde)",DL3-induced reduction of AR,LNCaP cells [7]; 24 hr with DL3 in presence of MG132,reversed
"CC1(C)NC(=O)N(c2ccc([N+](=O)[O-])c(C(F)(F)F)c2)C1=O [Nilut, Nilutamide, reference compound]",PSA production in parental LNCaP cells,"LNCaP cells [2]; 1 nM DHT, 10 μM, 48 hr (FIG. 5D)",enhances PSA production
same,DHT-induced PSA production,LNCaP cells [2]; 1 nM DHT,not
same,PSA production under androgen-free conditions,LNCaP cells [2],stimulates PSA production
same,growth of LNCaP-Nilut-R cells,LNCaP-Nilut-R cells [8],promotes growth
same,growth of LNCaP-Flut-R cells,LNCaP-Flut-R cells [9],promotes growth
same,PSA production in LNCaP-Flut-R cells,LNCaP-Flut-R cells [10],enhances PSA production
same,PSA production in LNCaP-Nilut-R cells,LNCaP-Nilut-R cells [11],enhances PSA production
O=c1c(O)c(-c2ccc(O)c(O)c2)oc2cc(O)cc(O)c12 [Querstin],cell growth,LNCaP-ARR2-GFP cells,significantly inhibited cell growth
same,GFP expression (AR agonist activity),LNCaP-ARR2-GFP cells,enhanced GFP expression
Oc1ccc(/C=C/c2cc(O)cc(O)c2)cc1 [Resveratol],cell growth,LNCaP-ARR2-GFP cells,significantly inhibited cell growth
same,GFP expression (AR agonist activity),LNCaP-ARR2-GFP cells,enhanced GFP expression
